Patent publication US7291628B2, “Treatment of cocaine abuse using N-substituted derivatives of morphinan” (McLean Hospital Corporation, priority 2001, dated 2007)
“Also recorded” adds a separate entry of the source.

Tests used:
μ opioid receptor = μ opioid receptor (Cavia porcellus, UniProt A0ACM8Q262); test: competitive binding assay with [3H]DAMGO in guinea pig brain membranes; conditions: for affinity for the μ opioid receptor, in words: comparator, if any, as in the value; for Ki: read-out: Ki, μ opioid receptor, [3H]DAMGO, guinea pig brain membranes
δ opioid receptor = target: T1, δ opioid receptor (Cavia porcellus, UniProt A0A286XTF2); test: competitive binding assay with [3H]naltrindole in guinea pig brain membranes
T1 construct: from tissue; host or cells: guinea pig brain membranes

κ opioid receptor = target: T2, κ opioid receptor (Cavia porcellus, UniProt P41144); test: competitive binding assay with [3H]U69,593 in guinea pig brain membranes; conditions: for affinity for the κ opioid receptor, in words: comparator, if any, as in the value; for increase in affinity at the κ opioid receptor: relative to levorphanol; for κ/δ selectivity: κ versus δ binding
T2 construct: from tissue; host or cells: guinea pig brain membranes

Oc1ccc2c(c1)[C@@]13CCCC[C@H]1[C@@H](C2)N(CCCF)CC3 [Compound 3]
affinity for the μ opioid receptor, in words (μ opioid receptor): high affinity
Ki (μ opioid receptor): 180 pM
Ki (δ opioid receptor): 850 pM
Ki (κ opioid receptor): 83 pM
affinity for the κ opioid receptor, in words (κ opioid receptor): high affinity

COCCN1CC[C@]23CCCC[C@H]2[C@H]1Cc1ccc(O)cc13 [Compound 6]
affinity for the μ opioid receptor, in words (μ opioid receptor): high affinity
Ki (μ opioid receptor): 110 pM
Ki (κ opioid receptor): 94 pM
affinity for the κ opioid receptor, in words (κ opioid receptor): high affinity

C=CCN1CC[C@]23CCCC[C@H]2[C@H]1Cc1ccc(O)cc13 [Compound 8, levallorphan, reference compound]
change in affinity for the μ opioid receptor, in words (μ opioid receptor; relative to levorphanol): almost no changes in affinity
change in affinity for the δ opioid receptor, in words (δ opioid receptor; relative to levorphanol): almost no changes in affinity
increase in affinity at the κ opioid receptor (κ opioid receptor): 15 fold

I/C=C/CN1CC[C@]23CCCC[C@H]2[C@H]1Cc1ccccc13 [Compound 34, N-(3-iodoprop-(2E)-enyl)morphinan]
affinity for the μ opioid receptor, in words (μ opioid receptor): Ki values in the picomolar range; also recorded: very high affinity
decreased affinity for the δ opioid receptor (δ opioid receptor; in comparison to compound 9): 43 fold
affinity for the κ opioid receptor, in words (κ opioid receptor): Ki values in the picomolar range; also recorded: very high affinity
decreased affinity for the κ opioid receptor (κ opioid receptor; in comparison to compound 9): 10 fold

I/C=C\CN1CC[C@]23CCCC[C@H]2[C@H]1Cc1ccccc13 [Compound 35, N-(3-iodoprop-(2Z)-enyl)morphinan]
decreased affinity for the μ receptor (μ opioid receptor; relative to 34): 100 fold
decreased affinity for the κ receptor (κ opioid receptor; relative to 34): 17 fold

Oc1ccc2c(c1)[C@@]13CCCC[C@H]1[C@@H](C2)N(CC1CCC1)CC3 [MCL-101, reference compound]
affinity for the μ opioid receptor, in words (μ opioid receptor): almost the same affinity for the μ and κ opioid receptors as cyclorphan
increase in affinity at the μ opioid receptor (μ opioid receptor; relative to levorphanol): 2 fold
increase in affinity at the δ opioid receptor (δ opioid receptor; relative to levorphanol): 3 fold
affinity for the κ opioid receptor, in words (κ opioid receptor): almost the same affinity for the μ and κ opioid receptors as cyclorphan
increase in affinity at the κ opioid receptor (κ opioid receptor): 30 fold
κ/δ selectivity (κ opioid receptor): 18 fold

Oc1ccc2c(c1)[C@@]13CCCC[C@H]1[C@@H](C2)N(CC1CC1)CC3 [cyclorphan, reference compound]
κ/δ selectivity (κ opioid receptor): 4 fold
